Laboratory results taken from PMC6451126 (2019).

Legend:
[1] = tested on: KRAS (DNA, G4) AGGGCGGTGTGGGAAGAGGGAAGAGGGGGAGG; experiment: RLS intensity ratio; Job plot; details: 50 mM KCl; 20 mM Tris-HCl pH 7.4, 1 mM Na2EDTA, 5 µM porphyrin
[2] = tested on: C-MYC (DNA, G4) TGAGGGTGGGGAGGGTGGGGAA; experiment: RLS intensity ratio; details: 50 mM KCl; 20 mM Tris-HCl pH 7.0, 1 mM Na2EDTA, 5 µM porphyrin, 10 µM DNA
[3] = tested on: Hum24 (DNA, G4) TTAGGGTTAGGGTTAGGGTTAGGG; experiment: RLS intensity ratio; details: 50 mM KCl; 20 mM Tris-HCl pH 7.0, 1 mM Na2EDTA, 5 µM porphyrin, 10 µM DNA
[4] = tested on: KRAS (DNA, G4) AGGGCGGTGTGGGAAGAGGGAAGAGGGGGAGG; experiment: RLS ratio I702/I652, absorption, fluorescence; Job plot; details: 50 mM KCl; 20 mM Tris-HCl pH 7.0, 1 mM Na2EDTA, 5 µM porphyrin
[5] = tested on: AS1411 (DNA, G4) GGTGGTGGTGGTTGTGGTGGTGGTGG; experiment: RLS intensity ratio; details: 50 mM KCl; 20 mM Tris-HCl pH 7.0, 1 mM Na2EDTA, 5 µM porphyrin, 10 µM DNA
[6] = tested on: CatG4 (DNA, G4) TGGGTAGGGCGGGTTGGG; experiment: RLS intensity ratio; details: 50 mM KCl; 20 mM Tris-HCl pH 7.0, 1 mM Na2EDTA, 5 µM porphyrin, 10 µM DNA
[7] = tested on: Oxy28 (DNA, G4) GGGGTTTTGGGGTTTTGGGGTTTTGGGG; experiment: RLS intensity ratio; details: 50 mM KCl; 20 mM Tris-HCl pH 7.0, 1 mM Na2EDTA, 5 µM porphyrin, 10 µM DNA

binding [1]	binding [2]	binding [3]	binding [4]	binding [5]	binding [6]	binding [7]	Structure (SMILES)
yes							C[N+]1(CCO)CC[N+](C)(CCOc2ccc(-c3c4nc(c(-c5ccc(OCC[N+]6(C)CC[N+](C)(CCO)CC6)cc5)c5ccc([nH]5)c(-c5ccc(OCC[N+]6(C)CC[N+](C)(CCO)CC6)cc5)c5nc(c(-c6ccc(OCC[N+]7(C)CC[N+](C)(CCO)CC7)cc6)c6ccc3[nH]6)C=C5)C=C4)cc2)CC1 (stereo not shown)
	yes	yes	yes	yes	yes	yes	C[N+]1(CCOc2ccc(-c3c4nc(c(-c5ccc(OCC[N+]6(C)CCCCC6)cc5)c5ccc([nH]5)c(-c5ccc(OCC[N+]6(C)CCCCC6)cc5)c5nc(c(-c6ccc(OCC[N+]7(C)CCCCC7)cc6)c6ccc3[nH]6)C=C5)C=C4)cc2)CCCCC1
